Data as given in ChEMBL document CHEMBL6087475, “Current and Emerging Approaches Targeting G9a for the Treatment of Various Diseases” (J Med Chem, 2025).

What was measured:
[1] = target: DNA (cytosine-5)-methyltransferase 1 (Homo sapiens, UniProt P26358); assay: Inhibition of DNMT1 (unknown origin)
[2] = Cmax in mouse at 25 mg/kg, ip; assay type: ADME, organism-based; conditions: in vivo
[3] = target: T1, Histone-lysine N-methyltransferase EHMT2 (Homo sapiens, UniProt Q96KQ7); assay: Inhibition of G9a (unknown origin)
T1 sequence (Q96KQ7 whole entry): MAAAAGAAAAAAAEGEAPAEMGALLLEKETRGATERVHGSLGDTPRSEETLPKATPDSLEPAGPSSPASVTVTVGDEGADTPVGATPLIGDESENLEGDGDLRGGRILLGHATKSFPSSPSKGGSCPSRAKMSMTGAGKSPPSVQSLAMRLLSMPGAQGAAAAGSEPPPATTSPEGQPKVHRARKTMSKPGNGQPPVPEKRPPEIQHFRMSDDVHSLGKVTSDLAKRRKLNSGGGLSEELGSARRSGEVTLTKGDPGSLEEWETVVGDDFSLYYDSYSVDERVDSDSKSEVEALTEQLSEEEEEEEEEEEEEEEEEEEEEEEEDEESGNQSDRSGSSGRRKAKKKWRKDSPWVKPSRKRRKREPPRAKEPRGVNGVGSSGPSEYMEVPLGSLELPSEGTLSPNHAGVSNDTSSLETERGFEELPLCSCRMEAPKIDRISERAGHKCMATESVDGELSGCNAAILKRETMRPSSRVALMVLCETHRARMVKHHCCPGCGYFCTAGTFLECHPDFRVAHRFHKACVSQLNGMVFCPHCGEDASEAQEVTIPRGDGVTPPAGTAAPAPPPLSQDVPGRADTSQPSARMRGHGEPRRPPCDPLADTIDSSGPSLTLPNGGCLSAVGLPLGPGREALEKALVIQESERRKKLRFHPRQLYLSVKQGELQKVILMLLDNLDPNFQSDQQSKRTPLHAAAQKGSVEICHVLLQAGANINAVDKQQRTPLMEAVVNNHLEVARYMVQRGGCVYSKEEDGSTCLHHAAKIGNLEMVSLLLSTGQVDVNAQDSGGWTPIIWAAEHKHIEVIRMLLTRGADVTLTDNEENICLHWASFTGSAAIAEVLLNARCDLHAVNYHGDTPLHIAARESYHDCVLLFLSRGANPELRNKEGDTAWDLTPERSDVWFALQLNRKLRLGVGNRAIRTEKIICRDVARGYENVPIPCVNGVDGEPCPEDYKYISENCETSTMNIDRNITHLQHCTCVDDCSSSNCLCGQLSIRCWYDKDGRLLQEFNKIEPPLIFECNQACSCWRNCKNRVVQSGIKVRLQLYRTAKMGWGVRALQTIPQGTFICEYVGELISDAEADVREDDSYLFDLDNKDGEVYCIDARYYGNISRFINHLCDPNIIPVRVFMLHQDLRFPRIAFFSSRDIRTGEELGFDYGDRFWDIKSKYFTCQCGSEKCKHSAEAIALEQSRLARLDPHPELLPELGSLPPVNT

MCF7 = assay: Antiproliferative activity against human MCF7 cells assessed as reduction in cell growth measured after 72 hrs by MTT assay; assay type: functional, cell-based; conditions: MCF7, 72 h
A549 = assay: Antiproliferative activity against human A549 cells assessed as reduction in cell viability measured after 72 hrs by MTT assay; assay type: functional, cell-based; conditions: A549, 72 h
[4] = target: T2, Histone-lysine N-methyltransferase EHMT1/EHMT2 (Homo sapiens, UniProt Q9H9B1+Q96KQ7); assay: Inhibition of G9a/GLP in human MDA-MB-231 cells assessed as reduction in H3K9 dimethylation incubated for 3 days by Western blotting analysis; assay type: cell-based
T2 sequence (Q9H9B1 whole entry): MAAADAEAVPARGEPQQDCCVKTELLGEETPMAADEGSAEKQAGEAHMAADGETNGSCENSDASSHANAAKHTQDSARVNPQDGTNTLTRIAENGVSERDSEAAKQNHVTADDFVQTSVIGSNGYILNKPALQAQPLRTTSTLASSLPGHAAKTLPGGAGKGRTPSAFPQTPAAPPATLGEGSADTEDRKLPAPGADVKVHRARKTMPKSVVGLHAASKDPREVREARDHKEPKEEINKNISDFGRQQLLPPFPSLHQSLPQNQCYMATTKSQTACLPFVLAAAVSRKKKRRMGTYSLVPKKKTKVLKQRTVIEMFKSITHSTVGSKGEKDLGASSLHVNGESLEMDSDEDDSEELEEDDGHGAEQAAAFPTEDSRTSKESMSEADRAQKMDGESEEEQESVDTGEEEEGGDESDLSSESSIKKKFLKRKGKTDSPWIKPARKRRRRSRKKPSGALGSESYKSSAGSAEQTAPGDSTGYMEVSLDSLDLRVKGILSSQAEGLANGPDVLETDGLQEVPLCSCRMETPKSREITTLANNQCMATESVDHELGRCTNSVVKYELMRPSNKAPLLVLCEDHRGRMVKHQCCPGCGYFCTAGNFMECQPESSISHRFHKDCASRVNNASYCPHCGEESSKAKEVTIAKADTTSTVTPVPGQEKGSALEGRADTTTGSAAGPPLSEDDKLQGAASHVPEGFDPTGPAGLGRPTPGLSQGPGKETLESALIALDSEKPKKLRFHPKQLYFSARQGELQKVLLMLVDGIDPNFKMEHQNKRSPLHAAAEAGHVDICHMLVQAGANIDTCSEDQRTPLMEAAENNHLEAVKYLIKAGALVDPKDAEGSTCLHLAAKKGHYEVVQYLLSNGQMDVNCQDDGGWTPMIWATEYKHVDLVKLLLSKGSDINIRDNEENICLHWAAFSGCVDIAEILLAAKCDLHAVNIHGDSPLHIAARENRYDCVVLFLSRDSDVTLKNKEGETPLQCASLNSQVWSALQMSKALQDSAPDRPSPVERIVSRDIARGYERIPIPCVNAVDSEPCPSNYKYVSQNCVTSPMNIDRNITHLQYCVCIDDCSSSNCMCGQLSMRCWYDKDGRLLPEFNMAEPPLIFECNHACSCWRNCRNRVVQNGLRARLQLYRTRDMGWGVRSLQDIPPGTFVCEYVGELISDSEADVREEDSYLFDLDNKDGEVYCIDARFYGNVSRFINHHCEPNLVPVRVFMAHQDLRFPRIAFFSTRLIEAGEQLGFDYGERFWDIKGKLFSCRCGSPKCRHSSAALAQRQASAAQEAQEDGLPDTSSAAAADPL
T2 sequence (Q96KQ7 whole entry): T1 sequence (Q96KQ7 whole entry)

K562 = assay: Antiproliferative activity against human K562 cells assessed as reduction in cell growth measured after 72 hrs by MTT assay; assay type: functional, cell-based; conditions: K562, 72 h
PANC-1 = assay: Antiproliferative activity against human PANC-1 cells assessed as reduction in cell growth incubated for 24 hrs by MTT assay; assay type: functional, cell-based; conditions: PANC-1, 24 h
[5] = target: von Hippel-Lindau disease tumor suppressor/Histone-lysine N-methyltransferase EHMT2 (Homo sapiens, UniProt Q96KQ7+P40337); assay: PROTAC activity at G9a/VHL in human 22Rv1 cells assessed as induction of G9a degradation at 1 uM incubated for 24 hrs by Western blot analysis; assay type: cell-based
Sequence of von Hippel-Lindau disease tumor suppressor/Histone-lysine N-methyltransferase EHMT2 (P40337 whole entry, one chain of several): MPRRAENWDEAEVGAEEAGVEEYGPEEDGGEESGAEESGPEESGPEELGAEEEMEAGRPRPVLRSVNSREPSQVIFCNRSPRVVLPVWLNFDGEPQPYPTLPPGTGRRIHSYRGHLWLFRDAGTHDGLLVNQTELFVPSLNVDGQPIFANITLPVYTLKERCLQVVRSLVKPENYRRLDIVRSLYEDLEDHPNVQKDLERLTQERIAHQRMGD

[6] = target: von Hippel-Lindau disease tumor suppressor/Histone-lysine N-methyltransferase EHMT1 (Homo sapiens, UniProt Q9H9B1+P40337); assay: PROTAC activity at GLP/VHL in human 22Rv1 cells assessed as induction of GLP degradation at 1 uM incubated for 24 hrs by Western blot analysis; assay type: cell-based
Sequence of von Hippel-Lindau disease tumor suppressor/Histone-lysine N-methyltransferase EHMT1 (P40337 whole entry, one chain of several): as above

Sequence of DNA (cytosine-5)-methyltransferase 1 (P26358 whole entry): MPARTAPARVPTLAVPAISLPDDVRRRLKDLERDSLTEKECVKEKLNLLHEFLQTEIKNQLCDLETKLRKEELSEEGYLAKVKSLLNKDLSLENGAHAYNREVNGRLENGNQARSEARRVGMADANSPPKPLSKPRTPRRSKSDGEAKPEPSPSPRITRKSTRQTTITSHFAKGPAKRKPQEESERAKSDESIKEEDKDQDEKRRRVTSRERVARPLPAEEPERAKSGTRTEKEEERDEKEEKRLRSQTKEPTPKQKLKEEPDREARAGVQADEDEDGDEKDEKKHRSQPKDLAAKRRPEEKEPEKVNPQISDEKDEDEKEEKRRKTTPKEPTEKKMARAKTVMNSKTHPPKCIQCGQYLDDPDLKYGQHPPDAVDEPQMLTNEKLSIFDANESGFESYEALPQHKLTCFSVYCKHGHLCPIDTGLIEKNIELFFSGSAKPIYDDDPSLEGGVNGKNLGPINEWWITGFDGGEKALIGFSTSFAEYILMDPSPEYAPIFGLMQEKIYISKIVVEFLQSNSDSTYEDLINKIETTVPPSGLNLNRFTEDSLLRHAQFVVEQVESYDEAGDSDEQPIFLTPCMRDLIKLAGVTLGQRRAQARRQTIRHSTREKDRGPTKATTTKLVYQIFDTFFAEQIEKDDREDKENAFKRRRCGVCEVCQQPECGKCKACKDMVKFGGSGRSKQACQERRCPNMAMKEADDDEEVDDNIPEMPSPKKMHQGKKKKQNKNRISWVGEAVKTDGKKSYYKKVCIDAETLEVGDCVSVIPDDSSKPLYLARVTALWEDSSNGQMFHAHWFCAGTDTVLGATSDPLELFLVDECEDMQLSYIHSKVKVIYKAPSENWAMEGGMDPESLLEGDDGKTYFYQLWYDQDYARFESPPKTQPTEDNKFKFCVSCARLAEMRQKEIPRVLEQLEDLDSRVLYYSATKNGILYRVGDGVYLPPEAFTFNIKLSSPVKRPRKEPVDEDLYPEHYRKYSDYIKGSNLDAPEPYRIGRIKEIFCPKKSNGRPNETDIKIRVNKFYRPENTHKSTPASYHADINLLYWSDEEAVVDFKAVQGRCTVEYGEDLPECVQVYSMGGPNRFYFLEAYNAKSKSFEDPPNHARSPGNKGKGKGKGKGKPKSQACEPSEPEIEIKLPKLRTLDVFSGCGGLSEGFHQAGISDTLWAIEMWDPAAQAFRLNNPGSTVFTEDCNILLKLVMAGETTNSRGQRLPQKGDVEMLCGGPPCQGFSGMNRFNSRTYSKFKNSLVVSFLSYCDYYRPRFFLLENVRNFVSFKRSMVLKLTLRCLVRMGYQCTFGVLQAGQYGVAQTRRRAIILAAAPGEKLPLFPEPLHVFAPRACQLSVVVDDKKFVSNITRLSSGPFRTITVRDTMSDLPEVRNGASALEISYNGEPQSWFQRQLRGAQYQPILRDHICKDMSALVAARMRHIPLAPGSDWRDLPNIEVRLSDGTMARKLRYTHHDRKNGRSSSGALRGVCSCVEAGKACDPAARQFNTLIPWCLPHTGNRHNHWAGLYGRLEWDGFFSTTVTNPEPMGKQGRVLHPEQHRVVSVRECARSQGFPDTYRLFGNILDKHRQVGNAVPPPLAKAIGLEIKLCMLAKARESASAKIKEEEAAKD

| IC50 [1] [nM] | IC50 [3] [nM] | Structure (SMILES) | other results |
| --- | --- | --- | --- |
|  | 126 | COc1cc2c(C3CCOCC3)nc(N)nc2cc1OCCCN1CCCC1 |  |
| 16300 |  | COc1cc2c(cc1OC)-c1c(C)c3cc(OC)c(OC)cc3c[n+]1CC2 |  |
|  | 13 | COc1cc2nc(N3CCOCC3)nc(NC3CCN(C)CC3)c2cc1OC |  |
| 3060 |  | Cc1ccc(SS(=O)(=O)c2ccc(C)cc2)cc1 |  |

Second part, the compound before the results:

| Structure (SMILES) | IC50 [1] [nM] | IC50 [3] [nM] | other results |
| --- | --- | --- | --- |
| Cc1c(C(=O)N[C@@H](CCC2CC2)C(=O)Nc2ccc(C#N)cc2)[nH]c2c1C(=O)CC(C)(C)C2 | 27 |  | Cmax [2]: 42.4 µM |
| CCN1C[C@H](NC(=O)c2cc3cc(Cl)ccc3[nH]2)[C@@H](OC)C1 | 1.8 |  |  |
| COc1ccc2c(NC3CCN(Cc4ccccc4)CC3)nc(NCCNC(=O)CCCCC(=O)NO)nc2c1 |  |  | EC50 (MCF7): 37400 nM; EC50 (A549): 36200 nM; IC50 [4]: 7136 nM |
| CN(C)C(=O)Nc1ccc(CN2CCC(C(O)(c3ccc(C(F)(F)F)cc3)c3ccc(C(F)(F)F)cc3)CC2)cc1 | 6500 |  | IC50 (K562): 1700 nM |
| CCOc1ccc(Nc2cc(C)nc3ccc(Cl)cc23)cc1 |  | 67 |  |
| CCN(c1cc(-c2ccc(CN3CCOCC3)cc2)cc(C(=O)NCc2c(C)cc(C)[nH]c2=O)c1C)C1CCOCC1 [TAZEMETOSTAT] |  | 2.9 |  |
| COC(=O)c1ccc2c(c1)nc(NC(=O)c1ccccc1)n2CCCc1ccccc1 |  |  | EC50 (PANC-1): 5000 nM |
| COc1cc2c(NC3CCN(CCCC(=O)NCCCCCCCCNc4cccc5c4C(=O)N(C4CCC(=O)NC4=O)C5=O)CC3)nc(C3CCCCC3)nc2cc1OCCCN1CCCC1 (configuration not stated) |  |  | DC50 [5]: 100 nM; DC50 [6]: > 10000 nM |
